# Experimental data as given in PubChem BioAssay (NCI).
#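 Assay format: 96-well plates, 48-hour exposure. The concentration for 50% growth inhibition is given as GI50. TGI: total growth inhibition.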 Where a SMILES comes first, the peptide text is derived from it.
# How the values were obtained:
# Experiment in all cases: NCI anticancer screen, dose series, 48 h
# [1] = test system: K-562 leukemia
# [2] = test system: SR leukemia
# [3] = test system: NCI-H226 lung
# [4] = test system: OVCAR-5 ovarian
# [5] = test system: SW-620 colon
# [6] = test system: SNB-75 CNS
# [7] = test system: T-47D breast
# [8] = test system: MALME-3M melanoma
# [9] = test system: TK-10 renal
# [10] = test system: HS 578T breast
SMILES,TGI [1],TGI [2],TGI [3],TGI [4],TGI [5],TGI [6],TGI [7],TGI [8],TGI [9],TGI [10],GI50 [1],GI50 [2],GI50 [4],GI50 [5],GI50 [6],GI50 [7],GI50 [8],GI50 [9],GI50 [10]
Cc1ccc(C2(N3CCOCC3)OC(C)(C)c3cccc4cccc2c34)cc1 (stereo unspecified),> 100 µM,> 100 µM,35.8 µM,34.4 µM,37 µM,30.5 µM,60.4 µM,36.9 µM,39 µM,46 µM,,,,,,,,,
C=C(C)[C@@H]1CC[C@]2(C(=O)OC3OC(COC4OC(CO)C(OC5OC(C)C(O)C(O)C5O)C(O)C4O)C(O)C(O)C3O)CC[C@]3(C)[C@H](CC[C@@H]4[C@@]5(C)CC[C@H](O)[C@@](C)(CO)[C@@H]5CC[C@]43C)[C@@H]12 (stereo partly specified),> 6.45 µM,> 4.48 µM,> 10 µM,> 10 µM,> 10 µM,> 10 µM,> 10 µM,> 10 µM,> 10 µM,> 9.62 µM,,,,,,,,,
COc1ccc(C[C@H]2COC(=O)[C@@H]2Cc2ccccc2)cc1OC,> 100 µM,> 100 µM,> 100 µM,> 100 µM,> 100 µM,,> 100 µM,> 100 µM,> 100 µM,> 100 µM,,,,,,,,,
Cc1sc2nc3n(sc4nc5sc(C)c(C)c5c(=O)n43)c(=O)c2c1C,> 100 µM,> 100 µM,> 100 µM,> 100 µM,> 100 µM,43.4 µM,12 µM,,> 100 µM,> 100 µM,,,,,,,,,
COCCN(C(=O)c1ccccc1)C1CCC(=O)c2[nH]c3ccccc3c21 (stereo unspecified),18.3 µM,> 24.8 µM,20.6 µM,30.6 µM,23.3 µM,16.5 µM,34.4 µM,17.7 µM,35.5 µM,> 75.5 µM,,,,,,,,,
CCn1c(SCc2nnc(Nc3ccccc3)s2)nc2ccccc2c1=O,> 73.2 µM,61.4 µM,7.75 µM,31.1 µM,> 68.3 µM,14.2 µM,27 µM,14 µM,12.3 µM,8.56 µM,,,,,,,,,
COC(C[C@H]1CCCC[C@]1(O)/C(=C\CO[Si](C(C)C)(C(C)C)C(C)C)Sc1ccccc1)OC,> 100 µM,46.5 µM,62.4 µM,> 100 µM,,98.9 µM,40.8 µM,86.4 µM,> 100 µM,> 100 µM,,,,,,,,,
C/C(=N\NC(=O)c1ccncc1)c1cccc(C(F)(F)F)c1,> 10 µM,> 10 µM,> 10 µM,,> 10 µM,> 10 µM,> 10 µM,> 10 µM,> 10 µM,> 10 µM,,,,,,,,,
C=C(C)C(=O)O[C@H]1CC2(CO)O[C@@H]2CC/C(COC(C)=O)=C/C2OC(=O)C(=C)[C@@H]21 (stereo partly specified),74 µM,43.3 µM,> 100 µM,> 100 µM,54.7 µM,> 100 µM,> 79.2 µM,62.2 µM,> 56.6 µM,> 100 µM,,,,,,,,,
O=C1c2ccccc2C2(c3ccc(Cl)cc3)N[C@@H]3CCCC[C@@H]3N12 (stereo partly specified),> 100 µM,> 100 µM,> 100 µM,> 100 µM,> 100 µM,> 100 µM,> 100 µM,,> 100 µM,> 100 µM,,,,,,,,,
O=c1[nH]nc(N/N=C\c2ccc(Cl)cc2)c2ccccc12,81.1 µM,58.2 µM,57.4 µM,31.8 µM,> 100 µM,47.6 µM,69.2 µM,45.4 µM,54.4 µM,62.7 µM,,,,,,,,,
CC(=O)OCC1(CNc2nc(N)ncc2C#N)CC(CCc2ccccc2)C1 (stereo unspecified),> 100 µM,> 100 µM,> 100 µM,> 100 µM,> 100 µM,> 100 µM,> 100 µM,> 100 µM,,> 100 µM,,,,,,,,,
CCCOC1OC(CS(=O)(=O)O)C(OC(C)=O)C(OC(C)=O)C1OC(C)=O (stereo unspecified),> 100 µM,> 100 µM,> 100 µM,> 100 µM,> 100 µM,> 100 µM,> 100 µM,> 100 µM,> 100 µM,> 100 µM,,,,,,,,,
CN1CCCC(OC(=O)c2cc3cc(CCl)ccc3oc2=O)C1 (stereo unspecified),> 100 µM,70.1 µM,58.1 µM,43.4 µM,64.8 µM,52.8 µM,> 100 µM,44.3 µM,48.8 µM,56.6 µM,,,,,,,,,
COC(=O)NC(Nc1ccc(C)cc1)(C(F)(F)F)C(F)(F)F,> 100 µM,> 100 µM,> 100 µM,> 100 µM,> 100 µM,> 100 µM,> 100 µM,> 100 µM,> 100 µM,> 100 µM,,,,,,,,,
CCOC(=O)c1nc2ccccc2nc1Nc1ccc(F)cc1,> 100 µM,> 100 µM,> 63.7 µM,> 100 µM,> 100 µM,18.5 µM,> 86.1 µM,> 100 µM,> 100 µM,> 84.8 µM,,,,,,,,,
Cc1cc(C)c(C#N)c(SC(=S)NC(=O)c2ccccc2)n1,> 100 µM,> 100 µM,> 100 µM,> 100 µM,> 100 µM,> 100 µM,> 100 µM,> 100 µM,> 100 µM,> 100 µM,,,,,,,,,
CCC(C)C(NC(=O)C1CCCN1)C(=O)NC(C(=O)NCC(=O)NC(CC(N)=O)C(=O)NC(CC(C)C)C(=O)NC(CC(C)C)C(=O)NC(CCCCN)C(N)=O)C(C)C (stereo unspecified) (H-PIVGNLLK-NH2; configuration not given here),> 75 µM,> 75 µM,> 75 µM,> 75 µM,> 75 µM,,> 75 µM,> 75 µM,> 75 µM,> 75 µM,,,,,,,,,
O=C1NC(=S)N/C1=C\c1ccc(Sc2ccccc2C(=O)O)s1,> 100 µM,> 100 µM,> 100 µM,> 100 µM,> 100 µM,> 100 µM,> 100 µM,> 100 µM,> 100 µM,> 100 µM,,,,,,,,,
COc1ccc(-c2cc(-c3ccc(OC)c(OC)c3)nc(SCCCC(=O)NO)n2)cc1,> 100 µM,15.5 µM,,6.25 µM,10.7 µM,5.6 µM,> 100 µM,4.88 µM,> 100 µM,33 µM,1.11 µM,0.552 µM,1.53 µM,0.906 µM,1.34 µM,1.42 µM,0.896 µM,0.722 µM,1.91 µM
